Holding throughout (type): biochemical
The target in one experiment is T1, E. coli Topoisomerase IV (Escherichia coli, UniProt P0AFI2+P20083).
T1 construct: purchased Inspiralis, UK
The experiment in a line: Topoisomerase IV decatenation assay (E. coli). Particulars: for % inhibition Topo IV / inhibition at 50 µM: n/a = not active; for inhibition at 50 µM: read-out: % inhibition Topo IV. The procedure: (§1) The above compounds were tested for the inhibition of the enzyme DNA gyrase in a gyrase supercoiling assay and for the inhibition of the enzyme topoisomerase IV in a decatenation assay, in both Gram positive and Gram negative bacteria, according to the following methods.
(§2) Both the assays were carried out according to a set-up method modified from the article to Blanche F, et al. “Differential Behaviors of Staphylococcus aureus and Escherichia coli Type II DNA Topoisomerases”, Antimicrob. Agents Chemother., 1996, Vol. 40, No. 12 p. 2714-2720.
(§3) The compounds were screened at single concentration (200, 100 or 50 μM), in duplicate.
(§4) S. aureus and E. coli Topoisomerase IV decatenation kits (Inspiralis, UK) were used. A master mix with a total volume sufficient for the number of reactions to perform was prepared with the following reagents: 5× assay buffer (50 mM HEPES-KOH (pH 7.6), 100 mM potassium glutamate, 10 mM magnesium acetate, 10 mM DTT, 1 mM ATP, 50 μg/ml albumin), kDNA substrate (200 ng/reaction), RNase-DNase free water. Aliquots of this mix were dispensed in each tube, then 10× compound stock solutions or vehicle control (DMSO), were added in each reaction tube.
(§5) Reaction was started with Topoisomerase IV enzyme (0.5 U/reaction) addition.
(§6) A sample added with an equal volume of dilution buffer was used as negative control (without enzyme).
(§7) The reaction tubes were gentle vortexed and incubated 30 minutes at 37° C. Each reaction was stopped by adding 30 μl of Stop Buffer and 30 μl of chloroform/isoamyl alcohol (24/1), briefly vortexed for 5-10 seconds and centrifuged at 20000×g for 2 minutes. Samples taken from the upper phase were loaded into 1% agarose gel and subjected to electrophoresis for 1 hour at 80V constant voltage in TAE (40 mM Tris-acetate, 2 mM EDTA).
(§8) Data acquisition and analysis. Due to the high molecular mass, kDNA could not enter an agarose gel under normal electrophoresis conditions, but remained in the wells. In the presence of Topo IV topoisomerase mini-circles (2.5 Kb) were released from kDNA by decatenation and were quickly and easily resolved in the gel at relatively high voltages.
(§9) Bands were visualized by ethidium bromide staining (dil 1:20000) for 30 minutes followed by destaining in distilled water for 10 minutes.
(§10) For single concentration screening assay, in order to evaluate the compounds activity on the enzymes, the bands of decatenated DNAs in the gel were photographed by a digital imaging system ImageQuant LAS 4000 (GE Healthcare) according to manufacturer's instructions.
(§11) The fluorescent intensity of each band was analyzed by ImageQuant TL software and it was expressed as volume (volume of the uncalibrated quantity of material in the image feature after subtraction of the background intensity by using rolling ball method).
(§12) Each band intensity was compared, as percentage, to vehicle sample band intensity, which served as positive control, on the same gel.
(§13) Inhibitory activity was expressed as percent of inhibition versus the positive control.
(§14) The supercoiled or decatenated DNA bands obtained as described in Example 1 were analysed as follows.
(§15) Bands were analyzed by gel documentation equipment (Syngene, Cambridge, UK) and quantitated using Syngene Gene Tools software. Raw gel data (fluorescent band volumes) collected from Syngene, GeneTools gel analysis software were converted to a percentage of the 100% control (the fully supercoiled or decatenated DNA band). […] The IC50 data were calculated by using the global curve fit non-linear regression tool by selecting the Single, 2 Parameter fit function from the Exponential Decay equation category.

For experiment [1], the target named is T2, S. aureus Topoisomerase IV (Staphylococcus aureus, UniProt P0C1S7+P0C1U9).
T2 construct: purchased Inspiralis, UK
The experiment in a line: Topoisomerase IV decatenation assay (S. aureus). As to conditions: S. aureus; for % inhibition Topo IV: n/a = not active; for IC50: concentration-response curve, eight half-log concentrations 0.1 to 300 μM, read-out: IC50 Topo IV. The procedure:
as §1, §2, §3, §4, §5, §6, §7, §8, §9, §10, §11, §12, §13, §14, §15

The next experiment deals with T3, S. aureus DNA gyrase (Staphylococcus aureus, UniProt P0A0K8+P20831).
T3 construct: purchased Inspiralis, UK
T3 sequence (P0A0K8 whole entry): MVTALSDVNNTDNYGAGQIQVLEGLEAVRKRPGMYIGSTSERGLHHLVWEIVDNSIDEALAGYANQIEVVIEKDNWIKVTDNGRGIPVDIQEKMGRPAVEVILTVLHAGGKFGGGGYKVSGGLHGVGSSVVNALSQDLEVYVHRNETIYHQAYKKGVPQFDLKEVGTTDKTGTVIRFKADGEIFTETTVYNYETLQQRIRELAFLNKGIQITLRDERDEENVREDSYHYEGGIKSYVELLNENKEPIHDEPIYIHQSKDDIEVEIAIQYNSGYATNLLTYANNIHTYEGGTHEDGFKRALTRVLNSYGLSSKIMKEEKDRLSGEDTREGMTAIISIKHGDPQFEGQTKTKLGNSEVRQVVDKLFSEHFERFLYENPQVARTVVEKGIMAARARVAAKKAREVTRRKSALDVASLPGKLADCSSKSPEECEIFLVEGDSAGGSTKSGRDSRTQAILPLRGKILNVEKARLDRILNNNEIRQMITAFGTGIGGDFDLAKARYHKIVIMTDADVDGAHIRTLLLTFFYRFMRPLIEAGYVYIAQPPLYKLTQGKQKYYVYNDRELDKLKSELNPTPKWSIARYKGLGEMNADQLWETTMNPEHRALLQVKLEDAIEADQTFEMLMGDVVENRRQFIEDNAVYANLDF
T3 sequence (P20831 whole entry): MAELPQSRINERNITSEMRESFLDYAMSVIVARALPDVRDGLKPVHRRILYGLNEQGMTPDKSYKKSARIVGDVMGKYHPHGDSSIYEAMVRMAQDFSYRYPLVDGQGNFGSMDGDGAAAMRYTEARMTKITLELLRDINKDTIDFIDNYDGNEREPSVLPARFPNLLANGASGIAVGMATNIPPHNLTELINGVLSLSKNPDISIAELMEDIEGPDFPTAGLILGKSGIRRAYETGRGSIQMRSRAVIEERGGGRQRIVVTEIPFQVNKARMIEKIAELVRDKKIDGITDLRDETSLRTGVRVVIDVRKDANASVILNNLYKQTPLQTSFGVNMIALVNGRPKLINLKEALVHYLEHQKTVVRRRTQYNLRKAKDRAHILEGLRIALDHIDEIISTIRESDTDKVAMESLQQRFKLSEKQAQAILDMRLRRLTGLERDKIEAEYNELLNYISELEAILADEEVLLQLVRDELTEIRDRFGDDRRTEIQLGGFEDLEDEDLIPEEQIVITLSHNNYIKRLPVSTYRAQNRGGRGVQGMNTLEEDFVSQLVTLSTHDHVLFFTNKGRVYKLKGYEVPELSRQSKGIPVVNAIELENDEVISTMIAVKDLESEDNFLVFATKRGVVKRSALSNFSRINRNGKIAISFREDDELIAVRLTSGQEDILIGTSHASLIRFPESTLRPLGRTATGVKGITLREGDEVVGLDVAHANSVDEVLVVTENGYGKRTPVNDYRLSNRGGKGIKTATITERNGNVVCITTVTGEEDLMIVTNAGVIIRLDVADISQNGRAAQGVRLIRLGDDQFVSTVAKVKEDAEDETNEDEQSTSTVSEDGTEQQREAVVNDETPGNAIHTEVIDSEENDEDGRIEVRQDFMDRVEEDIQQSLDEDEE
As to the kind of experiment: DNA gyrase supercoiling assay (S. aureus). As to conditions: for % inhibition DNA gyrase / inhibition at 50 µM: n/a = not active. The procedure: as §1, §2, §3
(§16) Reagents from S. aureus and E. coli Gyrase Supercoiling Assay kits (Inspiralis, UK) were used. A master mix with a total volume sufficient for the number of reactions to perform was prepared with the following reagents: 5× assay buffer, relaxed pBR322 substrate (0.5 μg/reaction), RNase-DNase free water. Aliquotes of this mix were dispensed in each tube, then 10× compound stock solutions or vehicle control (DMSO), were added to each reaction tube.
(§17) Reaction was started with E. Coli (2 U/reaction) or S. aureus (1 U/reaction) gyrase enzyme addition.
as §6
(§18) The reaction tubes were gentle vortexed and incubated 30 minutes at 37° C. Each reaction was stopped by adding 30 μl of Stop Buffer and 30 μl chloroform/isoamyl alcohol (24/1), briefly vortexed for 5-10 seconds and centrifuged at 20000×g for 2 minutes. Samples were loaded onto 1% agarose gel and subjected to electrophoresis for 1 hour at 80V constant voltage in TAE (40 mM Tris-acetate, 2 mM EDTA).
(§19) Data acquisition and analysis. Treatment of relaxed pBR322 with DNA gyrase converted the relaxed topoisomers (DNAs of different linking number) to the supercoiled form of the plasmid, which migrates faster on an agarose gel. An upper band might also be visible, which consists of open-circular (nicked) DNA which is present in the relaxed substrate but co-migrates with some of the relaxed topoisomers.
(§20) Bands were visualized by ethidium bromide staining (dilution 1:20000) for 30 minutes followed by destaining in distilled water for 10 minutes.
(§21) In order to evaluate the compounds activity on the enzyme, the bands of supercoiled DNAs in the gel were photographed by a digital imaging system ImageQuant LAS 4000 (GE Healthcare) according to manufacturer's instructions.
as §11, §12, §13, §14, §15

The target in the next experiment is T4, E. coli DNA gyrase (Escherichia coli, UniProt P0AES4+P0AES6).
T4 construct: purchased Inspiralis, UK
T4 sequence (P0AES4 whole entry, one chain of several): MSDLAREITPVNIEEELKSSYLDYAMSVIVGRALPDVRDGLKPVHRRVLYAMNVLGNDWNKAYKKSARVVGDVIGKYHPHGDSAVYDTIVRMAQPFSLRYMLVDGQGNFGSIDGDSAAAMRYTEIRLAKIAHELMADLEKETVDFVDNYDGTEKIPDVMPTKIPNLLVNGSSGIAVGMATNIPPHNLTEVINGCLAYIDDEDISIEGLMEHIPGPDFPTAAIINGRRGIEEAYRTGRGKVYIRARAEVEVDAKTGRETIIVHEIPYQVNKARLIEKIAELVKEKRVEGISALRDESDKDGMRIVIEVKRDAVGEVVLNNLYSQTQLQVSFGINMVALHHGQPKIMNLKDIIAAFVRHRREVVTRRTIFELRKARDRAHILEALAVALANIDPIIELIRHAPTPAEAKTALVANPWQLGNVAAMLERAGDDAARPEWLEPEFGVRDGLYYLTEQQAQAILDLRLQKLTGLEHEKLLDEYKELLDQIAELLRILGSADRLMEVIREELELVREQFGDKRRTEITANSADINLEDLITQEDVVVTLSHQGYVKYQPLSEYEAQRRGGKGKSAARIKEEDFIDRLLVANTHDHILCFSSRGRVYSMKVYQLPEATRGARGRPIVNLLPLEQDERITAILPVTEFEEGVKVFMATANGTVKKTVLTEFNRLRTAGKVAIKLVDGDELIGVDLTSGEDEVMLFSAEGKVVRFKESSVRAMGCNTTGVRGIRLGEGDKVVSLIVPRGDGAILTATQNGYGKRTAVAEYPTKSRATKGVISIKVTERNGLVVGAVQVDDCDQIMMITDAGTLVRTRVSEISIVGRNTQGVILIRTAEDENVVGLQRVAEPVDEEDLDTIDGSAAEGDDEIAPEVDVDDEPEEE
The experiment in a line: DNA gyrase supercoiling assay (E. coli). As to conditions: for % inhibition DNA gyrase / inhibition at 50 µM: n/a = not active. The procedure: as §1, §2, §3, §16, §17, §6, §18, §19, §20, §21, §11, §12, §13, §14, §15

[2] abbreviates: E. coli, concentration-response curve, eight half-log concentrations 0.1 to 300 μM, read-out: IC50 Topo IV.
Setting [3] is: S. aureus, concentration-response curve, eight half-log concentrations 0.1 to 300 μM, read-out: IC50 DNA gyrase.
Where [4] appears, read: E. coli, concentration-response curve, eight half-log concentrations 0.1 to 300 μM, read-out: IC50 DNA gyrase.

Where two headings read alike, the source gives them in different places.

T1 sequence (P20083 whole entry): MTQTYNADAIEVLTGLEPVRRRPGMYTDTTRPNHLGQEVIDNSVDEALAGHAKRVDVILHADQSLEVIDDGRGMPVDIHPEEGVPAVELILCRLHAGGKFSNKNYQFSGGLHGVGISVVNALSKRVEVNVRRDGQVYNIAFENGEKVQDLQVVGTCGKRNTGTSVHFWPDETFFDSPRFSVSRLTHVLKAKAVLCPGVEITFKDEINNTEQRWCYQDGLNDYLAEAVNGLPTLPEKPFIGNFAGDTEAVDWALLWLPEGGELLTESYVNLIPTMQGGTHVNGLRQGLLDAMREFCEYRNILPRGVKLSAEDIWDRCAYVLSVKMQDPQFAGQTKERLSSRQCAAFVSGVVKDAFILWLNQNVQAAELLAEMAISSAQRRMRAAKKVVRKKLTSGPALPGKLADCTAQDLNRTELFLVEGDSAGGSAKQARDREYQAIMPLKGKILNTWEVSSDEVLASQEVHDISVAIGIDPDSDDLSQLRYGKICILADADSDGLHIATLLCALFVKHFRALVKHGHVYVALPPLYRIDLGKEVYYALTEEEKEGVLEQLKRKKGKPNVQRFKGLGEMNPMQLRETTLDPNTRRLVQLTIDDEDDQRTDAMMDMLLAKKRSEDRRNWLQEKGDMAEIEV
T1 sequence (P0AFI2 whole entry): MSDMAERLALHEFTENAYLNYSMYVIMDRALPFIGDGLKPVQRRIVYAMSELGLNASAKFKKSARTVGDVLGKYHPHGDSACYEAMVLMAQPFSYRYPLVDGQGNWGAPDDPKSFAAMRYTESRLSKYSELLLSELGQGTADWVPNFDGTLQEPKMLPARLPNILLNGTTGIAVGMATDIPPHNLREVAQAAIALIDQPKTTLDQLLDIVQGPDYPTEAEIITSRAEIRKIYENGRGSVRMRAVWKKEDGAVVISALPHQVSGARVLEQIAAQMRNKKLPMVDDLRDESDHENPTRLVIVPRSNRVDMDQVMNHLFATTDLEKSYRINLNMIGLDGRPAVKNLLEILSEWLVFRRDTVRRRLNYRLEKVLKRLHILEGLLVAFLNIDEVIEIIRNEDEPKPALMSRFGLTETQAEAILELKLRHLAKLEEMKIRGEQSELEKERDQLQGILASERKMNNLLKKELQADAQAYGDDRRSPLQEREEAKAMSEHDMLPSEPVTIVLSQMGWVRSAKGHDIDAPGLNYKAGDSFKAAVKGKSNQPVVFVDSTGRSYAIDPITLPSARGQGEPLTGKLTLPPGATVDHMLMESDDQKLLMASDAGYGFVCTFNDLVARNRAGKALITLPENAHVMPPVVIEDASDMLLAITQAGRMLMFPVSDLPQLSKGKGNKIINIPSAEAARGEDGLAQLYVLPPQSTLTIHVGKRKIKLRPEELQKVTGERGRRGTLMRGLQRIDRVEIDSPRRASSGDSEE

As for “7-methoxy-1-chloroisoquinoline [Compound 88]”, the “% inhibition Topo IV” value came to 100% on E. coli Topoisomerase IV (E. coli, conc. 50 μM) and 88% in experiment [1] (conc. 50 μM). The IC50 came to 0.9 µM at E. coli Topoisomerase IV (setting [2]), 6.7 µM in experiment [1], 1.1 µM on S. aureus DNA gyrase (setting [3]) and 3.2 µM on E. coli DNA gyrase (setting [4]). Moreover, the “% inhibition DNA gyrase” value amounted to 100% on S. aureus DNA gyrase (S. aureus, conc. 50 μM) and 100% at E. coli DNA gyrase (E. coli, conc. 50 μM).

In the case of “7-methyl-1-chloroisoquinoline [Compound 72]”, the “% inhibition Topo IV” value was determined as 91% at E. coli Topoisomerase IV (E. coli, conc. 100 μM) and 76% in experiment [1] (conc. 100 μM). In addition, the IC50 on E. coli Topoisomerase IV (setting [2]) was found to be 3.8 µM; in experiment [1], 52 µM; at S. aureus DNA gyrase (setting [3]), 9.6 µM; at E. coli DNA gyrase (setting [4]), 2.6 µM. For the same compound, the “% inhibition DNA gyrase” value is 97% at S. aureus DNA gyrase (S. aureus, conc. 100 μM) and 98% at E. coli DNA gyrase (E. coli, conc. 100 μM).

As for `C[N+]1(CCCNc2cc(=O)oc3ccccc23)CCN(c2nccc3ccccc23)CC1` [Compound 124, 4-(isoquinolin-1-yl)-1-methyl-1-{3-[(2-oxo-2H-chromen-4-yl)amino]propyl}piperazin-1-ium iodide], the IC50 turned out to be 6 µM on E. coli Topoisomerase IV, 9 µM on S. aureus DNA gyrase and 7 µM against E. coli DNA gyrase. Also, the inhibition at 50 µM at E. coli Topoisomerase IV (E. coli, conc. 50 μM) stood at 62%; against S. aureus DNA gyrase (S. aureus, conc. 50 μM), 75%; against E. coli DNA gyrase (E. coli, conc. 50 μM), 79%.

For `O=c1cc(NCCCN2CCN(c3nccc4ccc(F)cc34)CC2)c2c(o1)CCOC2` [Compound 125, 4-({3-[4-(7-fluoroisoquinolin-1-yl)piperazin-1-yl]propyl}amino)-7,8-dihydro-2H,5H-pyrano[4,3-b]pyran-2-one], the figures for the IC50 against E. coli Topoisomerase IV, against S. aureus DNA gyrase and against E. coli DNA gyrase were 59 µM, 19 µM and 6.3 µM, respectively. The inhibition at 50 µM on E. coli Topoisomerase IV (E. coli, conc. 50 μM) came out at 68%; against S. aureus DNA gyrase (S. aureus, conc. 50 μM), 89%; against E. coli DNA gyrase (E. coli, conc. 50 μM), 86%.

`O=c1cc(CC(O)CCN2CCN(c3nccc4ccc(F)cc34)CC2)c2ccccc2o1` (stereo not shown) [Compound 134, 4-{4-[4-(7-fluoroisoquinolin-1-yl)piperazin-1-yl]-2-hydroxybutyl}-2H-chromen-2-one]: the IC50 against E. coli Topoisomerase IV turned out to be 2.5 µM; on S. aureus DNA gyrase, 0.81 µM; on E. coli DNA gyrase, 2.8 µM. Moreover, the inhibition at 50 µM on E. coli Topoisomerase IV (E. coli, conc. 50 μM) turned out to be 78%; against S. aureus DNA gyrase (S. aureus, conc. 50 μM), 71%; against E. coli DNA gyrase (E. coli, conc. 50 μM), 87%.

Consider `O=c1oc2ccccc2c2[nH]c(CCN3CCN(c4nccc5ccc(F)cc45)CC3)nc12` [Compound 143, 2-{2-[4-(7-fluoroisoquinolin-1-yl)piperazin-1-yl]ethyl}chromeno[3,4-d]imidazol-4(1H)-one], for which the inhibition at 50 µM on E. coli Topoisomerase IV (E. coli, conc. 50 μM) stood at 91%; at S. aureus DNA gyrase (S. aureus, conc. 50 μM) it was 89%; on E. coli DNA gyrase (E. coli, conc. 50 μM), 96%.

For `O=c1oc2ccccc2c2[nH]c(CNC3CCN(c4nccc5ccc(F)cc45)CC3)cc12` [Compound 145, 2-({[1-(7-fluoroisoquinolin-1-yl)piperidin-4-yl]amino}methyl)[1]benzopyrano[4,3-b]pyrrol-4(1H)-one], the inhibition at 50 µM at E. coli Topoisomerase IV (E. coli, conc. 50 μM) turned out to be 100%; against S. aureus DNA gyrase (S. aureus, conc. 50 μM), 97%; on E. coli DNA gyrase (E. coli, conc. 50 μM) it was 99%.

Turning to `O=c1oc2ccccc2c2[nH]c(CNC3CCN(c4nccc5ccc(F)cc45)CC3)nc12` [Compound 146, 2-({[1-(7-fluoroisoquinolin-1-yl)piperidin-4-yl]amino}methyl)[1]benzopyrano[3,4-d]imidazol-4(1H)-one], the inhibition at 50 µM was determined as 100% on E. coli Topoisomerase IV (E. coli, conc. 50 μM); 93% on S. aureus DNA gyrase (S. aureus, conc. 50 μM); 91% against E. coli DNA gyrase (E. coli, conc. 50 μM).

Consider `O=c1oc2ccccc2c2[nH]c(CCCN3CCN(c4nccc5ccc(F)cc45)CC3)nc12` [Compound 147, 2-{3-[4-(7-fluoroisoquinolin-1-yl)piperazin-1-yl]propyl}[1]benzopyrano[3,4-d]imidazol-4(1H)-one], for which the inhibition at 50 µM on E. coli Topoisomerase IV (E. coli, conc. 50 μM) worked out at 74%; against S. aureus DNA gyrase (S. aureus, conc. 50 μM) it was 85%; at E. coli DNA gyrase (E. coli, conc. 50 μM), 84%.

By IC50 is commonly meant the point on the concentration scale where inhibition reaches its midpoint. A word on the inhibition: it is the change of the read-out against control, counted positive when it falls.

For the origin of these results see patent US10221144B2, “Antibacterial compounds having broad spectrum of activity” (priority 2014, dated 2019).
